Test results from paper PMC5645128, “Hydrophobic residues are critical for the helix-forming, hemolytic and bactericidal activities of amphipathic antimicrobial peptide TP4” (PLoS ONE, 2017).
Values after ≈ are worked out from the molar mass of the structure shown. Ends that are not written are not given here.

Legend:
C. albicans = assay type: cell-based, Candida albicans
Experimental: (§1) All the tested microbes were cultured at 37°C except C. albicans (30°C) in respective medium. 90 μl of cell suspension (2–4 x10^6 cfu/ml) mixed with 10 μl of diluted TP4 were loaded in 96-well microplate and incubated overnight with gentle agitation at 100 rpm. The absorbance of TP4-treated bacteria in 96-well plate was measured by SpectraMax 190 microplate reader at 600 nm. The remaining cfu in the TP4-treated sample was determined by plating on agar plates. Minimum inhibitory concentration (MIC) was defined as the lowest AMP concentration in order to keep the solution with the same absorbance as that of culture medium. Minimum bactericidal concentration (MBC) was defined as the lowest AMP concentration able to kill 99.99% of microorganisms. At least three independent experiments were performed to determine the average value with standard deviation.

S. aureus = assay type: cell-based, Staphylococcus aureus
Experimental: as §1

P. aeruginosa = assay type: cell-based, Pseudomonas aeruginosa
Experimental: as §1

MRSA = assay type: cell-based, methicillin-resistant Staphylococcus aureus
Experimental: as §1

mouse red blood cells = assay type: cell-based
Experimental: For blood collection, cardiac puncture was performed on anesthetized mice (by 3% isoflurane) by a 1 ml heparin-rinsed syringe with a 22 gauge needle. After blood collection, the animals were euthanized by cervical dislocation. Fresh mouse blood was rinsed three times with PBS, centrifuged for 5 minutes at 1500 rpm and re-suspended in PBS (1:30 dilution). The diluted erythrocyte (150 μl) was incubated with TP4-derived peptides at 37°C for 3 hr and centrifuged at 120x g for 5 minutes. The supernatants (100 μl) were transferred to a 96-well plate and the absorbance of released hemoglobin was measured by SpectraMax 190 microplate reader at 414 nm. Percent hemolysis was calculated by the following formula: % hemolysis = [(A414in the peptide solution−A414in PBS)/(A414in 0.1% Triton-X 100 –A414in PBS)]. Zero and 100% hemolysis were determined in PBS and 0.1% Triton-X 100, respectively.
Fig 8 Hemolytic activity of TP4-derived peptides. Diluted mouse red blood cells (150 μl) was incubated with TP4-derived peptides at 37°C for 3 hr and spun at 120 x g for 5 minutes. The supernatants (100 μl) were transferred to a 96-well plate for measurement of released hemoglobulin at 414 nm by the SpectraMax 190 microplate reader.

[1] = assay type: physicochemical
Experimental: Fig 4 Hydrophobicity and solubility of TP4 in the presence of sarkosyl and LPS. (A) ANS emission spectrum of TP4 in solution containing sarkosyl. TP4 (4 μg) was dissolved in 200 μl of 10 mM sodium phosphate, pH7.4, 0.1 M NaCl, containing various concentrations of sarkosyl (0.075%, w/v, designated as 1x). (B) ANS emission spectrum of TP4 in solution containing LPS. TP4 (4 μg) was dissolved in 200 μl of 10 mM sodium phosphate, pH7.4, containing various amounts of LPS as indicated. ANS was added stepwise to the final concentrations as indicated (lines 1 to 6 at 0, 10, 20, 30, 40 and 50 μM, respectively). Arrows indicate the emission maximum at 470 nm or 520 nm for bound- and free-form ANS, respectively. (C, D) Solubility of TP4 in solution containing either sarkosyl or LPS. TP4 (4 μg) dissolved in 200 μl of respective solution containing sarkosyl or LPS at concentration as indicated was spun at 14,000 x g for 15 min and analyzed by SDS-PAGE/Coomassie blue staining.
Fig 9 OprI-binding ability of TP4-derived peptides. (A) Competition for OprI binding by TP4-derived peptides. […] The gel pellet was analyzed by non-reducing SDS-PAGE/Coomassie blue staining. rOprI, recombinant OprI; S.t, Streptavidin. […] TP4-derived peptides (6 μg each) dissolved in 1x sarkosyl buffer (300 μl) were incubated at 37°C for 10 min, then spun at 14,000 x g for 15 min and analyzed by SDS-PAGE/Coomassie blue staining. […]

| Molecule | MBC (C. albicans) [µg/mL] | MIC (C. albicans) [µg/mL] | MBC (S. aureus) [µg/mL] | MIC (S. aureus) [µg/mL] | MBC (P. aeruginosa) [µg/mL] | MIC (P. aeruginosa) [µg/mL] | MBC (MRSA) [µg/mL] | MIC (MRSA) [µg/mL] | hemolytic activity compared with wild type TP4 (mouse red blood cells) | solubility of TP4 in 1x Sar [1] |
| --- | --- | --- | --- | --- | --- | --- | --- | --- | --- | --- |
| FIHHIIGGLFSVGKHIHSLIHGH [TP3, reference compound] | 128 | 128 | 256 | 256 | >512 | >512 | >512 | 256 | – | – |
| FIHHIIGGLFSAGKAAHRLIRRRRR [I16A] | 128 | 128 | 128 | 64 | >512 | 256 | 512 | 64 | – | – |
| FIHHIIGGLFSAGKARHRLIRRRRR [I16R] | 256 | 128 | >512 | >512 | >512 | >512 | >512 | >512 | – | – |
| FIHHIIGGLFSAGKAIHRLIRRRRR [TP4] [listing 1 of 2 here] | 128 | 128 | 16 | 8 | 128 | 64 | 32 | 16 | – | – |
| AAHHIIGGLFSAGKAIHRLIRRRRR [F1A/I2A] | 128 | 64 | 256 | 128 | 256 | 256 | >512 | >512 | – | – |
| FIHHIIGGLFSAGKAIHRLIR [dC4] | 256 | 128 | 128 | 64 | >512 | >512 | 256 | 256 | – | – |
| FIHHIIGGLFSVGKHIHSLIHRRRR [VHSH] | 128 | 128 | 16 | 16 | >512 | >512 | 32 | 16 | – | – |
| FIHHIIGGLFSAGKAIHRHHRRRRR [L19H/I20H] | 128 | 128 | 512 | 128 | >512 | 256 | >512 | >512 | – | – |
| FIHHIIGGLFSAGKAIHRLIRRR [dC2] | 128 | 128 | 32 | 16 | >512 | 512 | 32 | 32 | – | – |
| HHIIGGLFSAGKAIHRLIRRRRR [dN2] | 128 | 128 | 512 | 512 | >512 | 512 | >512 | >512 | – | – |
| FIHHAAGGLFSAGKAIHRLIRRRRR [I5A/I6A] | 128 | 128 | >512 | >512 | 512 | 512 | >512 | >512 | – | – |
| FIHHIIGGLFSAGKAIHSLIHRRRR [R18S/R21H] | 512 | 256 | 64 | 32 | 512 | 256 | 32 | 32 | – | – |
| CC[C@H](C)[C@H](NC(=O)[C@H](CO)NC(=O)[C@H](Cc1ccccc1)NC(=O)[C@H](CC(C)C)NC(=O)CNC(=O)CNC(=O)[C@@H](NC(=O)[C@@H](NC(=O)[C@H](Cc1c[nH]cn1)NC(=O)[C@H](Cc1c[nH]cn1)NC(=O)[C@@H](NC(=O)[C@@H](N)Cc1ccccc1)[C@@H](C)CC)[C@@H](C)CC)[C@@H](C)CC)C(=O)NCC(=O)N[C@@H](CCCCN)C(=O)N[C@H](C(=O)N[C@H](C(=O)N[C@@H](Cc1c[nH]cn1)C(=O)N[C@@H](CCCNC(=N)N)C(=O)N[C@@H](CC(C)C)C(=O)N[C@H](C(=O)N[C@@H](CCCNC(=N)N)C(=O)N[C@@H](CCCNC(=N)N)C(=O)N[C@@H](CCCNC(=N)N)C(=O)N[C@@H](CCCNC(=N)N)C(=O)N[C@@H](CCCNC(=N)N)C(=O)O)[C@@H](C)CC)[C@@H](C)CC)[C@@H](C)CC [A12I/A15I] | 128 (≈ 41.8 µM) | 128 (≈ 41.8 µM) | 64 (≈ 20.9 µM) | 16 (≈ 5.22 µM) | >512 | 512 (≈ 167 µM) | 256 (≈ 83.5 µM) | 64 (≈ 20.9 µM) | four times higher activity than wild type TP4 | – |
| FIHHIIGGLFSAGKAIHRLIRRRRR [TP4] [listing 2 of 2 here] | – | – | – | – | – | – | – | – | – | less than 80 μM |
| FIAAIIGGLFSAGKAIHRLIRRRRR [H3A/H4A] | 512 | 512 | 32 | 32 | >512 | >512 | 256 | 128 | – | – |
| IIGGLFSAGKAIHRLIRRRRR [dN4] | 128 | 64 | 128 | 128 | >512 | 256 | 256 | 64 | – | – |
| FIHHIIGGLFSVGKHIHRLIRRRRR [A12V/A15H] | 128 | 128 | 16 | 16 | 128 | 128 | 64 | 32 | – | – |
| FIHHIIGGLFSAGKAEHRLIRRRRR [I16E] | 128 | 128 | >512 | >512 | >512 | >512 | >512 | >512 | – | – |
| FIHHIIGGAASAGKAIHRLIRRRRR [L9A/F10A] | 128 | 128 | >512 | >512 | >512 | >512 | >512 | >512 | – | – |
